Data from ChEMBL document CHEMBL4715697, “Synthesis and biological activity of benzamide DNA minor groove binders” (2016).

Experiments:
Format in all cases: functional
[1] = system: ACHN; assay: Growth inhibition of human ACHN cells assessed as cell growth at 100 uM incubated for 48 hrs by sulforhodamine B assay relative to control; conditions: read-out: Activity
[2] = system: MCF7; assay: Growth inhibition of human MCF7 cells assessed as cell growth at 1 uM incubated for 48 hrs by sulforhodamine B assay relative to control; conditions: read-out: Activity
[3] = system: 786-0; assay: Growth inhibition of human 786-0 cells assessed as cell growth at 0.1 uM incubated for 48 hrs by sulforhodamine B assay relative to control; conditions: read-out: Activity
[4] = system: UACC-257; assay: Growth inhibition of human UACC-257 cells assessed as cell growth at 0.01 uM incubated for 48 hrs by sulforhodamine B assay relative to control; conditions: read-out: Activity
[5] = system: 786-0; assay: Growth inhibition of human 786-0 cells assessed as cell growth at 0.01 uM incubated for 48 hrs by sulforhodamine B assay relative to control; conditions: read-out: Activity
[6] = system: SF-268; assay: Growth inhibition of human SF-268 cells assessed as cell growth at 100 uM incubated for 48 hrs by sulforhodamine B assay relative to control; conditions: read-out: Activity
[7] = system: NCI-H522; assay: Growth inhibition of human NCI-H522 cells assessed as cell growth at 100 uM incubated for 48 hrs by sulforhodamine B assay relative to control; conditions: read-out: Activity
[8] = system: SF-539; assay: Growth inhibition of human SF-539 cells assessed as cell growth at 1 uM incubated for 48 hrs by sulforhodamine B assay relative to control; conditions: read-out: Activity
[9] = system: SF-268; assay: Growth inhibition of human SF-268 cells incubated for 48 hrs by sulforhodamine B assay
[10] = system: EKVX; assay: Growth inhibition of human EKVX cells assessed as cell growth at 0.1 uM incubated for 48 hrs by sulforhodamine B assay relative to control; conditions: read-out: Activity
[11] = system: CCRF-CEM; assay: Growth inhibition of human CCRF-CEM cells assessed as cell growth at 100 uM incubated for 48 hrs by sulforhodamine B assay relative to control; conditions: read-out: Activity
[12] = system: UACC-62; assay: Growth inhibition of human UACC-62 cells assessed as cell growth at 1 uM incubated for 48 hrs by sulforhodamine B assay relative to control; conditions: read-out: Activity
[13] = system: NCI-H322M; assay: Growth inhibition of human NCI-H322M cells incubated for 48 hrs by sulforhodamine B assay
[14] = system: HCT-116; assay: Growth inhibition of human HCT-116 cells assessed as cell growth at 0.01 uM incubated for 48 hrs by sulforhodamine B assay relative to control; conditions: read-out: Activity
[15] = system: SNB-75; assay: Growth inhibition of human SNB-75 cells assessed as cell growth at 0.01 uM incubated for 48 hrs by sulforhodamine B assay relative to control; conditions: read-out: Activity
[16] = system: SK-MEL-28; assay: Growth inhibition of human SK-MEL-28 cells incubated for 48 hrs by sulforhodamine B assay
[17] = system: SK-MEL-2; assay: Growth inhibition of human SK-MEL-2 cells assessed as cell growth at 1 uM incubated for 48 hrs by sulforhodamine B assay relative to control; conditions: read-out: Activity
[18] = system: SNB-19; assay: Growth inhibition of human SNB-19 cells assessed as cell growth at 100 uM incubated for 48 hrs by sulforhodamine B assay relative to control; conditions: read-out: Activity
[19] = system: PC-3; assay: Growth inhibition of human PC-3 cells assessed as cell growth at 0.01 uM incubated for 48 hrs by sulforhodamine B assay relative to control; conditions: read-out: Activity
[20] = system: K562; assay: Growth inhibition of human K562 cells assessed as cell growth at 0.01 uM incubated for 48 hrs by sulforhodamine B assay relative to control; conditions: read-out: Activity
[21] = system: UACC-62; assay: Growth inhibition of human UACC-62 cells assessed as cell growth at 0.1 uM incubated for 48 hrs by sulforhodamine B assay relative to control; conditions: read-out: Activity
[22] = system: NCI-H23; assay: Growth inhibition of human NCI-H23 cells assessed as cell growth at 1 uM incubated for 48 hrs by sulforhodamine B assay relative to control; conditions: read-out: Activity
[23] = system: SF-295; assay: Growth inhibition of human SF-295 cells assessed as cell growth at 0.1 uM incubated for 48 hrs by sulforhodamine B assay relative to control; conditions: read-out: Activity
[24] = system: MCF7; assay: Growth inhibition of human MCF7 cells assessed as cell growth at 0.01 uM incubated for 48 hrs by sulforhodamine B assay relative to control; conditions: read-out: Activity
[25] = system: SW-620; assay: Growth inhibition of human SW-620 cells assessed as cell growth at 0.01 uM incubated for 48 hrs by sulforhodamine B assay relative to control; conditions: read-out: Activity
[26] = system: SK-MEL-5; assay: Growth inhibition of human SK-MEL-5 cells assessed as cell growth at 100 uM incubated for 48 hrs by sulforhodamine B assay relative to control; conditions: read-out: Activity
[27] = system: MDA-MB-231; assay: Growth inhibition of human MDA-MB-231 cells incubated for 48 hrs by sulforhodamine B assay
[28] = system: OVCAR-8; assay: Growth inhibition of human OVCAR-8 cells assessed as cell growth at 0.01 uM incubated for 48 hrs by sulforhodamine B assay relative to control; conditions: read-out: Activity
[29] = system: SR; assay: Growth inhibition of human SR cells assessed as cell growth at 100 uM incubated for 48 hrs by sulforhodamine B assay relative to control; conditions: read-out: Activity
[30] = system: OVCAR-8; assay: Growth inhibition of human OVCAR-8 cells assessed as cell growth at 0.1 uM incubated for 48 hrs by sulforhodamine B assay relative to control; conditions: read-out: Activity
[31] = system: OVCAR-3; assay: Growth inhibition of human OVCAR-3 cells assessed as cell growth at 0.01 uM incubated for 48 hrs by sulforhodamine B assay relative to control; conditions: read-out: Activity
[32] = system: OVCAR-5; assay: Growth inhibition of human OVCAR-5 cells incubated for 48 hrs by sulforhodamine B assay
[33] = system: MDA-MB-468; assay: Growth inhibition of human MDA-MB-468 cells assessed as cell growth at 100 uM incubated for 48 hrs by sulforhodamine B assay relative to control; conditions: read-out: Activity
[34] = system: UACC-257; assay: Growth inhibition of human UACC-257 cells assessed as cell growth at 0.1 uM incubated for 48 hrs by sulforhodamine B assay relative to control; conditions: read-out: Activity
[35] = system: SNB-19; assay: Growth inhibition of human SNB-19 cells assessed as cell growth at 1 uM incubated for 48 hrs by sulforhodamine B assay relative to control; conditions: read-out: Activity
[36] = system: UO-31; assay: Growth inhibition of human UO-31 cells assessed as cell growth at 100 uM incubated for 48 hrs by sulforhodamine B assay relative to control; conditions: read-out: Activity
[37] = read-out: LC50 (the source's name)
[38] = read-out: pLC50 (the source's name) (converted)

Question: How did the growth at 100 µM [1] turn out when `CC(=O)Nc1cc(CO[Si](C)(C)C(C)(C)C)cc(NC(=O)c2ccc(C(=O)Nc3cccc(NC(=O)CCCN(C)C)c3)cc2)c1` was run?
Answer: The growth at 100 µM was 84%.

Question: And the growth at 1 µM [2]?
Answer: The growth at 1 µM was 101%.

Question: And the growth at 0.1 µM [3]?
Answer: Its growth at 0.1 µM is 93%.

Question: And the growth at 0.01 µM [4]?
Answer: Its growth at 0.01 µM is 94%.

Question: And the growth at 0.01 µM [5]?
Answer: Its growth at 0.01 µM is 97%.

Question: And the growth at 100 µM [6]?
Answer: The growth at 100 µM was 82%.

Question: What about the growth at 100 µM [7] of the same molecule?
Answer: The growth at 100 µM was 86%.

Question: And the growth at 1 µM [8]?
Answer: Its growth at 1 µM is 100%.

Question: What about the GI50 ([9]; read-out: GI50) of the same molecule?
Answer: The GI50 was over 75 µM.

Question: What about the LC50 ([9]; read-out: LC50) of the same molecule?
Answer: Its LC50 is over 75 µM.

Question: What about the TGI ([9]; read-out: TGI) of the same molecule?
Answer: Its TGI is over 75 µM.

Question: And the GI50 ([9]; read-out: pGI50 (converted))?
Answer: Its GI50 is over 75.9 µM.

Question: And the LC50 ([9]; read-out: pLC50 (converted))?
Answer: The LC50 was over 75.9 µM.

Question: What about the TGI ([9]; read-out: pTGI) of the same molecule?
Answer: The TGI was over 75.9 µM.

Question: And the growth at 0.1 µM [10]?
Answer: The growth at 0.1 µM was 98%.

Question: And the growth at 100 µM [11]?
Answer: Its growth at 100 µM is 112%.

Question: And the growth at 1 µM [12]?
Answer: Its growth at 1 µM is 99%.

Question: And the GI50 ([13]; read-out: GI50)?
Answer: The GI50 was over 75 µM.

Question: What about the CC50 [13, 37] of the same molecule?
Answer: Its CC50 is over 75 µM.

Question: And the TGI ([13]; read-out: TGI)?
Answer: The TGI was over 75 µM.

Question: And the GI50 ([13]; read-out: pGI50 (converted))?
Answer: The GI50 was over 75.9 µM.

Question: And the CC50 [13, 38]?
Answer: Its CC50 is over 75.9 µM.

Question: And the TGI ([13]; read-out: pTGI)?
Answer: The TGI was over 75.9 µM.

Question: And the growth at 0.01 µM [14]?
Answer: The growth at 0.01 µM was 104%.

Question: What about the growth at 0.01 µM [15] of the same molecule?
Answer: Its growth at 0.01 µM is 93%.

Question: And the GI50 ([16]; read-out: GI50)?
Answer: Its GI50 is over 75 µM.

Question: And the LC50 (50% lethal concentration) ([16]; read-out: LC50)?
Answer: The LC50 (50% lethal concentration) was over 75 µM.

Question: What about the TGI ([16]; read-out: TGI) of the same molecule?
Answer: The TGI was over 75 µM.

Question: And the GI50 ([16]; read-out: pGI50 (converted))?
Answer: The GI50 was over 75.9 µM.

Question: What about the LC50 (50% lethal concentration) ([16]; read-out: pLC50 (converted)) of the same molecule?
Answer: The LC50 (50% lethal concentration) was over 75.9 µM.

Question: And the TGI ([16]; read-out: pTGI)?
Answer: The TGI was over 75.9 µM.

Question: And the growth at 1 µM [17]?
Answer: The growth at 1 µM was 112%.

Question: What about the growth at 100 µM [18] of the same molecule?
Answer: Its growth at 100 µM is 95%.

Question: What about the growth at 0.01 µM [19] of the same molecule?
Answer: Its growth at 0.01 µM is 100%.

Question: And the growth at 0.01 µM [20]?
Answer: Its growth at 0.01 µM is 93%.

Question: What about the growth at 0.1 µM [21] of the same molecule?
Answer: Its growth at 0.1 µM is 94%.

Question: What about the growth at 1 µM [22] of the same molecule?
Answer: Its growth at 1 µM is 96%.

Question: And the growth at 0.1 µM [23]?
Answer: The growth at 0.1 µM was 123%.

Question: What about the growth at 0.01 µM [24] of the same molecule?
Answer: The growth at 0.01 µM was 94%.

Question: And the growth at 0.01 µM [25]?
Answer: Its growth at 0.01 µM is 100%.

Question: And the growth at 100 µM [26]?
Answer: Its growth at 100 µM is 73%.

Question: And the GI50 ([27]; read-out: GI50)?
Answer: The GI50 was over 75 µM.

Question: What about the CC50 [27, 37] of the same molecule?
Answer: Its CC50 is over 75 µM.

Question: And the TGI ([27]; read-out: TGI)?
Answer: Its TGI is over 75 µM.

Question: What about the GI50 ([27]; read-out: pGI50 (converted)) of the same molecule?
Answer: Its GI50 is over 75.9 µM.

Question: And the CC50 [27, 38]?
Answer: The CC50 was over 75.9 µM.

Question: What about the TGI ([27]; read-out: pTGI) of the same molecule?
Answer: The TGI was over 75.9 µM.

Question: What about the growth at 0.01 µM [28] of the same molecule?
Answer: Its growth at 0.01 µM is 102%.

Question: What about the growth at 100 µM [29] of the same molecule?
Answer: The growth at 100 µM was 116%.

Question: And the growth at 0.1 µM [30]?
Answer: Its growth at 0.1 µM is 97%.

Question: And the growth at 0.01 µM [31]?
Answer: Its growth at 0.01 µM is 100%.

Question: And the GI50 ([32]; read-out: GI50)?
Answer: The GI50 was over 75 µM.

Question: And the LC50 ([32]; read-out: LC50)?
Answer: The LC50 was over 75 µM.

Question: And the TGI ([32]; read-out: TGI)?
Answer: Its TGI is over 75 µM.

Question: What about the GI50 ([32]; read-out: pGI50 (converted)) of the same molecule?
Answer: Its GI50 is over 75.9 µM.

Question: And the LC50 ([32]; read-out: pLC50 (converted))?
Answer: The LC50 was over 75.9 µM.

Question: And the TGI ([32]; read-out: pTGI)?
Answer: Its TGI is over 75.9 µM.

Question: And the growth at 100 µM [33]?
Answer: Its growth at 100 µM is 103%.

Question: And the growth at 0.1 µM [34]?
Answer: The growth at 0.1 µM was 90%.

Question: And the growth at 1 µM [35]?
Answer: Its growth at 1 µM is 101%.

Question: What about the growth at 100 µM [36] of the same molecule?
Answer: The growth at 100 µM was 89%.
